Source: paper PMC11928584, “H105A peptide eye drops promote photoreceptor survival in murine and human models of retinal degeneration” (Communications Medicine, 2025)
Values joined by “and” are separate entries in the source; they are usually repeats but may differ in a detail not shown here. Identical values can stand only once. Where a SMILES comes first, the peptide text is derived from it.

Legend:
[1] = Stability of peptide H105A against temperature (storage); format: physicochemical
Protocol: Lyophilized peptides were dissolved in sterile HBSS at 1 mg/ml and stored at −20 °C. Before the peptides were used, the peptide solution was brought to room temperature and subjected to centrifugation (Eppendorf, Centrifuge 5430 R) at 20,800 x g for 10 min at 4 °C to clear and separate particulate material. In case a precipitate was found, the pH of the solution was adjusted to neutral pH with either NaOH or HCl and all peptides were soluble. The concentration of peptide solutions was determined using spectrophotometry (NanoDrop, Thermo Fisher Scientific). The stability of peptide H105A against temperature was performed and summarized in Supplementary Table 2.
Supplementary Table 2. Stability of 17- mer[H105A] peptide.
Concentration (mg/mL) Store Concentration (mg/mL)
*FT, Freeze and thaw cycles daily

[2] = system: human iPSC-derived retinal organoids exposed to CSE; test: TUNEL staining of retinal organoid sections; format: cell-based; settings: Figure 8f; CSE + peptide; individual values, n=5
Protocol: Human iPSCs were differentiated into retinal organoids (ROs) following the protocol by Zhong et al.[41]. Briefly, on Day 0, hiPSC colonies were dissociated with dispase and grown in a suspension to form embryoid bodies, and slowly transitioned to neural induction media (DMEM/F12 (1:1), 1% N2 supplement (Invitrogen), 1 x minimum essential media-nonessential amino acids (NEAAs), 2 µg/ml heparin (Sigma)). On Day 7, EBs were seeded on Matrigel coated plates and maintained in neural induction media. On Day 16, the media was switched to the retinal differentiation medium (DMEM/F12 (3:1), 2% B27 (without vitamin A, Invitrogen), 1x NEAA and 1% antibiotic–antimycotic (Gibco)). Retinal domains were identified and lifted manually with tungsten needles between Day 21 and Day 26 under a phase contrast microscope. On day 30, the culture medium was transitioned to DMEM/F12 (3:1) with 2% B27, 1x NEAA, 1% antibiotic–antimycotic, 10% fetal bovine serum (FBS; Gibco), […] Taurine (Sigma), and 2 mM GlutaMAX (Invitrogen). Additionally, 1 µM retinoic acid supplement was introduced daily starting from day 63. On day 91, the medium was modified to DMEM/F12 (1:1) supplemented with 1% N2, 1 x NEAAs, 1% antibiotic–antimycotic, 10% FBS, […] Taurine and 2 mM GlutaMAX, and the concentration of retinoic acid supplementation was reduced to 0.5 µM for the remainder of the culture period. The use of hiPSCs in this study conforms to the University of Colorado Institutional Biosafety Committee standards. […]
D180 ROs were treated with each of the 5 experimental conditions, as described above (n = 5 for each condition), washed with PBS three times, and fixed with 4% paraformaldehyde for 10 min at room temperature. […] Fluorescence images were acquired with a Nikon C2 Confocal Microscope A1 (Minato City, Tokyo, Japan) and stitched together using Nikon Elements Software. Images were analysed with Fiji. The relative area of positive immunostaining was calculated as a percentage of total retinal area. […]

Compound | Concentration, Day 8 ([1]; sample 1, stored at RT) | Concentration, Day 8 ([1]; sample 2, stored at 4°C) | Concentration, Day 8 ([1]; sample 3, stored at -20°C) | Concentration, Day 8 ([1]; sample 4, stored at -20°C [FT], freeze and thaw cycles daily) | Relative TUNEL(+) area [2]
CC[C@H](C)[C@H](NC(=O)[C@H](CC(C)C)NC(=O)[C@H](CC(=O)O)NC(=O)[C@H](Cc1ccc(O)cc1)NC(=O)[C@H](Cc1ccc(O)cc1)NC(=O)[C@H](CC(C)C)NC(=O)[C@H](C)NC(=O)[C@H](CCCNC(=N)N)NC(=O)[C@H](C)NC(=O)[C@@H](NC(=O)[C@@H](NC(=O)[C@H](CO)NC(=O)[C@H](CCC(=O)O)NC(=O)[C@@H](NC(=O)[C@H](CCCNC(=N)N)NC(=O)[C@@H](N)CCC(N)=O)[C@@H](C)O)[C@@H](C)CC)[C@@H](C)CC)C(=O)N[C@@H](CO)C(=O)O [H105A] (H-QRTESIIARALYYDLIS-OH) | 1080 µg/mL | 1160 µg/mL | 1080 µg/mL | 1280 µg/mL | 
CC[C@H](C)[C@H](NC(=O)[C@H](CC(C)C)NC(=O)[C@H](CC(=O)O)NC(=O)[C@H](Cc1ccc(O)cc1)NC(=O)[C@H](Cc1ccc(O)cc1)NC(=O)[C@H](CC(C)C)NC(=O)[C@H](C)NC(=O)[C@H](CCCNC(=N)N)NC(=O)[C@H](Cc1c[nH]cn1)NC(=O)[C@@H](NC(=O)[C@@H](NC(=O)[C@H](CO)NC(=O)[C@H](CCC(=O)O)NC(=O)[C@@H](NC(=O)[C@H](C)NC(=O)[C@@H](N)CCC(N)=O)[C@@H](C)O)[C@@H](C)CC)[C@@H](C)CC)C(=O)N[C@@H](CO)C(=O)O [R99A] (H-QATESIIHRALYYDLIS-OH) |  |  |  |  | 4.87 and 4.90 and 3.81 and 6.35 and 6.42
